pIC50: −log10 of the molar value.
Test system: 817829-284-R-J1-PDC multi-cell spheroid viability
Experiment: Anticancer human tumor 817829-284-R-J1-PDC patient-derived colon adenocarcinoma cell line growth inhibition [PI3K]
Conditions: for pIC50: curve of first compound; for viability, T/C: stronger effect = lower value
Excerpt: Combinatorial screen of targeted agents with the PI3K inhibitors inavolisib, alpelisib, duvelisib, and copanlisib in multi-cell type tumor spheroids
A high-throughput screen of multi-cell type tumor spheroids was designed to identify active combinations of targeted small molecules and PI3K pathway inhibitors. Complex spheroids include a stromal component modeled by human endothelial cells (HUVEC) and fibroblasts modeled by human mesenchymal stem cells (MSCs). The concentration ranges selected for each drug and investigational agent were based upon clinically achievable concentrations if the clinical Cmax of the agent was known.
Compounds. The drugs and investigational agents: inavolisib (NSC800729), alpelisib (NSC765974), duvelisib (NSC772469), copanlisib (NSC816437), ipatasertib (NSC767898), afuresertib (NSC778305), talazoparib (NSC767125), sapanisertib (NSC764658), selumetinib (NSC741078), tovorafenib (DAY101, NSC766906), vemurafenib (NSC761431), ravoxertinib (NSC781343), sotorasib (NSC818433), MRTX1133 (NSC 836407), abemaciclib (NSC 768073), palbociclib (NSC758247), venetoclax (NSC 766270), SY5609 (NSC837396), enzalutamide (NSC755605), and darolutamide (NSC825331), were obtained from the National Cancer Institute (NCI) Developmental Therapeutics Program Chemical Repository. The FDA-approved anticancer drug set is available from the NCI Developmental Therapeutics Program. […] The stock solutions were prepared in dimethyl sulfoxide (DMSO, Sigma-Aldrich, St. Louis, MO, cat. D2650) at 800-fold the tested concentration and stored at -70 degrees C prior to their use. All drugs and investigational agents were tested over a range starting from a high concentration at or near the clinical Cmax and decreasing in half-log increments. If the clinical Cmax for an agent had not been determined, the highest concentration tested was 10 microM.
Cell Culture. All cells were maintained in an incubator at 37 degrees C and 5% CO2 with 95% humidity. The PDC lines were cultured according to standard operating procedures established by the NCI PDMR (https://pdmr.cancer.gov/sops/default.htm). All PDCs were thawed and cultured in Matrigel-coated flasks prepared with a working solution of 1X Ham's F-12 nutrient mix, without supplementation (Invitrogen, Waltham, MA, cat. 11765054), 100 U/mL penicillin-streptomycin (Invitrogen, cat. 15140122), and 2.5% Matrigel (Corning Inc., Corning, NY, cat. 354248) for the first three passages. The 354836-022-R-J1-PDC, 475296-252-R-J1-PDC, and 997726-040-R-J2-PDC lines were cultured in 6A media, which includes advanced DMEM/F-12 (Thermo Fisher Scientific, cat. 12634028), 10 mM HEPES (Thermo Fisher Scientific, cat. 15630080), 1X GlutaMAX supplement (Thermo Fisher Scientific, cat. 35050061), 0.1 mg/mL primocin (InvivoGen, San Diego, CA, cat. ant-pm-2), 10% defined fetal bovine serum, heat inactivated (HyClone Laboratories Inc., Logan, UT, cat. SH30070.03HI), 50% L-WRN conditioned media (ATCC, cat. CRL-3276), 1.25 mM N-Acetyl-L-cysteine (Sigma-Aldrich, cat. A9165), 10 mM nicotinamide (Sigma-Aldrich, cat. N0636), 1X B-27 supplement (Thermo Fisher Scientific, cat. 17504044), 1X N-2 supplement (Thermo Fisher Scientific, cat. 17502048), and 10 microM Y-27632 dihydrochloride (Tocris Bioscience, Bristol, United Kingdom, cat. 1254). The 624824-186-R-J2-PDC line was cultured in 6C/Colon 1B media, which includes all 6A media components plus 50 ng/mL human EGF recombinant protein (Thermo Fisher Scientific, cat. PHG0311). […]

[1] = second compound 0.00316 µM, first compound 0.0316 µM
[2] = second compound 0.00316 µM, first compound 0.1 µM
[3] = second compound 0.01 µM, first compound 0.0316 µM
[4] = second compound 0.01 µM, first compound 0.1 µM
[5] = second compound 0.0316 µM, first compound 0.0316 µM
[6] = second compound 0.0316 µM, first compound 0.1 µM
[7] = second compound 0.1 µM, first compound 0.0316 µM
[8] = second compound 0.1 µM, first compound 0.1 µM
[9] = second compound 0.316 µM, first compound 0.0316 µM
[10] = second compound 0.316 µM, first compound 0.1 µM
[11] = second compound 1 µM, first compound 0.0316 µM
[12] = second compound 1 µM, first compound 0.1 µM
[13] = second compound 0.00316 µM, first compound 0.316 µM
[14] = second compound 0.00316 µM, first compound 1 µM
[15] = second compound 0.00316 µM, first compound 3.16 µM
[16] = second compound 0.00316 µM, first compound 10 µM
[17] = second compound 0.01 µM, first compound 0.316 µM
[18] = second compound 0.01 µM, first compound 1 µM
[19] = second compound 0.01 µM, first compound 3.16 µM
[20] = second compound 0.01 µM, first compound 10 µM
[21] = second compound 0.0316 µM, first compound 0.316 µM
[22] = second compound 0.0316 µM, first compound 1 µM
[23] = second compound 0.0316 µM, first compound 3.16 µM
[24] = second compound 0.0316 µM, first compound 10 µM
[25] = second compound 0.1 µM, first compound 0.316 µM
[26] = second compound 0.1 µM, first compound 1 µM
[27] = second compound 0.1 µM, first compound 3.16 µM
[28] = second compound 0.1 µM, first compound 10 µM
[29] = second compound 0.316 µM, first compound 0.316 µM
[30] = second compound 0.316 µM, first compound 1 µM
[31] = second compound 0.316 µM, first compound 3.16 µM
[32] = second compound 0.316 µM, first compound 10 µM
[33] = second compound 1 µM, first compound 0.316 µM
[34] = second compound 1 µM, first compound 1 µM
[35] = second compound 1 µM, first compound 3.16 µM
[36] = second compound 1 µM, first compound 10 µM
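Further: spheroids exposed to agents for seven days before readout.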
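Wherever viability, T/C is given: percent of vehicle DMSO control viability which is 100%.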

CC(=O)c1c(C)c2cnc(Nc3ccc(N4CCNCC4)cn3)nc2n(C2CCCC2)c1=O + CC(Nc1ccc2c(c1)OCCn1cc(N3C(=O)OCC3C(F)F)nc1-2)C(N)=O
pIC50 (second compound 0.00316 µM): 7.16
pIC50 (second compound 0.01 µM): 7.12
pIC50 (second compound 0.0316 µM): 7.47
pIC50 (second compound 0.1 µM): 7.54
pIC50 (second compound 0.316 µM): 7.86
pIC50 (second compound 1 µM): 8.06
viability, T/C (second compound 0.00316 µM, first compound 0.000316 µM): 79.4%
viability, T/C (second compound 0.00316 µM, first compound 0.001 µM): 78.4%
viability, T/C (second compound 0.00316 µM, first compound 0.00316 µM): 74.4%
viability, T/C (second compound 0.00316 µM, first compound 0.01 µM): 73.2%
viability, T/C [1]: 142%
viability, T/C [2]: 31.9%
viability, T/C (second compound 0.01 µM, first compound 0.000316 µM): 124%
viability, T/C (second compound 0.01 µM, first compound 0.001 µM): 74.5%
viability, T/C (second compound 0.01 µM, first compound 0.00316 µM): 107%
viability, T/C (second compound 0.01 µM, first compound 0.01 µM): 56.3%
viability, T/C [3]: 58.8%
viability, T/C [4]: 48.4%
viability, T/C (second compound 0.0316 µM, first compound 0.000316 µM): 73.5%
viability, T/C (second compound 0.0316 µM, first compound 0.001 µM): 80%
viability, T/C (second compound 0.0316 µM, first compound 0.00316 µM): 84.3%
viability, T/C (second compound 0.0316 µM, first compound 0.01 µM): 62.5%
viability, T/C [5]: 53.4%
viability, T/C [6]: 31.4%
viability, T/C (second compound 0.1 µM, first compound 0.000316 µM): 85.1%
viability, T/C (second compound 0.1 µM, first compound 0.001 µM): 86%
viability, T/C (second compound 0.1 µM, first compound 0.00316 µM): 60.1%
viability, T/C (second compound 0.1 µM, first compound 0.01 µM): 105%
viability, T/C [7]: 46.8%
viability, T/C [8]: 37%
viability, T/C (second compound 0.316 µM, first compound 0.000316 µM): 51.7%
viability, T/C (second compound 0.316 µM, first compound 0.001 µM): 52.2%
viability, T/C (second compound 0.316 µM, first compound 0.00316 µM): 69.7%
viability, T/C (second compound 0.316 µM, first compound 0.01 µM): 52.4%
viability, T/C [9]: 38.3%
viability, T/C [10]: 23.3%
viability, T/C (second compound 1 µM, first compound 0.000316 µM): 68.8%
viability, T/C (second compound 1 µM, first compound 0.001 µM): 68.7%
viability, T/C (second compound 1 µM, first compound 0.00316 µM): 53.5%
viability, T/C (second compound 1 µM, first compound 0.01 µM): 55.6%
viability, T/C [11]: 29.7%
viability, T/C [12]: 27.2%

CCCS(=O)(=O)Nc1ccc(F)c(C(=O)c2c[nH]c3ncc(-c4ccc(Cl)cc4)cc23)c1F + CC(Nc1ccc2c(c1)OCCn1cc(N3C(=O)OCC3C(F)F)nc1-2)C(N)=O
pIC50 (second compound 0.00316 µM): 5.65
pIC50 (second compound 0.01 µM): 5.77
pIC50 (second compound 0.0316 µM): 5.43
pIC50 (second compound 0.1 µM): > 7.50
pIC50 (second compound 0.316 µM): > 7.50
pIC50 (second compound 1 µM): > 7.50
viability, T/C [1]: 67%
viability, T/C [2]: 57.9%
viability, T/C [13]: 61.3%
viability, T/C [14]: 51.6%
viability, T/C [15]: 49.6%
viability, T/C [16]: 3.89%
viability, T/C [3]: 95.3%
viability, T/C [4]: 56.5%
viability, T/C [17]: 67.8%
viability, T/C [18]: 56%
viability, T/C [19]: 49.7%
viability, T/C [20]: 4.85%
viability, T/C [5]: 69.3%
viability, T/C [6]: 52.4%
viability, T/C [21]: 69.7%
viability, T/C [22]: 32.1%
viability, T/C [23]: 65.4%
viability, T/C [24]: 4.59%
viability, T/C [7]: 38.9%
viability, T/C [8]: 53%
viability, T/C [25]: 47.8%
viability, T/C [26]: 45.9%
viability, T/C [27]: 38.5%
viability, T/C [28]: 5.88%
viability, T/C [9]: 43.5%
viability, T/C [10]: 57.1%
viability, T/C [29]: 55%
viability, T/C [30]: 43.1%
viability, T/C [31]: 47.3%
viability, T/C [32]: 6.23%
viability, T/C [11]: 55.9%
viability, T/C [12]: 44%
viability, T/C [33]: 46.9%
viability, T/C [34]: 34%
viability, T/C [35]: 50.1%
viability, T/C [36]: 6.69%

CNC(=O)c1ccc(N2C(=S)N(c3ccc(C#N)c(C(F)(F)F)c3)C(=O)C2(C)C)cc1F + CC(Nc1ccc2c(c1)OCCn1cc(N3C(=O)OCC3C(F)F)nc1-2)C(N)=O
pIC50 (second compound 0.00316 µM): < 5.00
pIC50 (second compound 0.01 µM): < 5.00
pIC50 (second compound 0.0316 µM): < 5.00
pIC50 (second compound 0.1 µM): 5.38
pIC50 (second compound 0.316 µM): 5.47
pIC50 (second compound 1 µM): > 7.50
viability, T/C [1]: 57.7%
viability, T/C [2]: 88.8%
viability, T/C [13]: 109%
viability, T/C [14]: 75.6%
viability, T/C [15]: 61.9%
viability, T/C [16]: 50.9%
viability, T/C [3]: 86.1%
viability, T/C [4]: 77.6%
viability, T/C [17]: 89.1%
viability, T/C [18]: 70.7%
viability, T/C [19]: 60.5%
viability, T/C [20]: 71.4%
viability, T/C [5]: 70.1%
viability, T/C [6]: 79.2%
viability, T/C [21]: 87.5%
viability, T/C [22]: 56.7%
viability, T/C [23]: 67.1%
viability, T/C [24]: 54.6%
viability, T/C [7]: 56.5%
viability, T/C [8]: 53.4%
viability, T/C [25]: 65.9%
viability, T/C [26]: 48.9%
viability, T/C [27]: 61.6%
viability, T/C [28]: 27.3%
viability, T/C [9]: 46.8%
viability, T/C [10]: 61.8%
viability, T/C [29]: 58%
viability, T/C [30]: 53.5%
viability, T/C [31]: 51%
viability, T/C [32]: 32.8%
viability, T/C [11]: 32.4%
viability, T/C [12]: 40.7%
viability, T/C [33]: 44.9%
viability, T/C [34]: 45.9%
viability, T/C [35]: 41.4%
viability, T/C [36]: 20.6%
